In ChEMBL document CHEMBL1201862, “PubChem BioAssay data set” (2004) one finds IC50, EC50 and AC50 data, which are given here for seven molecules.

The target of assay [1] is Protein Tat (Human immunodeficiency virus type 1 group M subtype B (isolate HXB2)(HIV-1), UniProt P04608). It is filed as functional.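 Note: tat binding to TAR RNA read out by fluorescence polarization.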
Assay [2] addresses E3 ubiquitin-protein ligase Mdm2 (Homo sapiens, UniProt Q00987). The assay is described as follows: MDM2-luc reporter signal enhancers, multi-concentration potency testing, MDM2 ubiquitin-protein ligase inhibitor program, whole-cell format, luminescence detection, 384-well microplate (AID 1394).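 Note: MDM2 E3 inhibitors raise luminescence so EC50 is for signal enhancement.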 It is filed as functional.
Assay [3] deals with Large T antigen (Simian virus 40, UniProt P03070). It is filed as functional, Betapolyomavirus macacae.
Chain of Large T antigen (P03070 whole entry): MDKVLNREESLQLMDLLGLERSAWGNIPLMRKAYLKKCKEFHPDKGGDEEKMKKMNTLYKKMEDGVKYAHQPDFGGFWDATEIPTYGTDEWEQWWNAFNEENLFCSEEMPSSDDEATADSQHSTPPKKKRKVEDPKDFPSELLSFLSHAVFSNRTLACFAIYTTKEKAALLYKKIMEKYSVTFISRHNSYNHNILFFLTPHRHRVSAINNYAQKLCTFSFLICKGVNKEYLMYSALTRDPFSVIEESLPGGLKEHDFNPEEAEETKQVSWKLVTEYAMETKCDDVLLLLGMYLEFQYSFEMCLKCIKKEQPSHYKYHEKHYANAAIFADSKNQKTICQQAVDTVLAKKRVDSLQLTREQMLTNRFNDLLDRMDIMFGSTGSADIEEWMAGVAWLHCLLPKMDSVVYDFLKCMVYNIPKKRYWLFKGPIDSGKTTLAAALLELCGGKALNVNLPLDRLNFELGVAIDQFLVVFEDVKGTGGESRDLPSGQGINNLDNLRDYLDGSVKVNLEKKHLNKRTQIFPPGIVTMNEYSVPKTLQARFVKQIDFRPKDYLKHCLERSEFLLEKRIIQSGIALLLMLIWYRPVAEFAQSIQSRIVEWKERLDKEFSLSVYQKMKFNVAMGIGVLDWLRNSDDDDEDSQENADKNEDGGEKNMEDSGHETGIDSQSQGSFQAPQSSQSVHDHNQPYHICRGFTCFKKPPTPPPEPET
The target in assay [4] is T1, Replicative DNA helicase DnaB (Mycobacterium tuberculosis, UniProt P9WMR3).
T1 sequence (P9WMR3 whole entry): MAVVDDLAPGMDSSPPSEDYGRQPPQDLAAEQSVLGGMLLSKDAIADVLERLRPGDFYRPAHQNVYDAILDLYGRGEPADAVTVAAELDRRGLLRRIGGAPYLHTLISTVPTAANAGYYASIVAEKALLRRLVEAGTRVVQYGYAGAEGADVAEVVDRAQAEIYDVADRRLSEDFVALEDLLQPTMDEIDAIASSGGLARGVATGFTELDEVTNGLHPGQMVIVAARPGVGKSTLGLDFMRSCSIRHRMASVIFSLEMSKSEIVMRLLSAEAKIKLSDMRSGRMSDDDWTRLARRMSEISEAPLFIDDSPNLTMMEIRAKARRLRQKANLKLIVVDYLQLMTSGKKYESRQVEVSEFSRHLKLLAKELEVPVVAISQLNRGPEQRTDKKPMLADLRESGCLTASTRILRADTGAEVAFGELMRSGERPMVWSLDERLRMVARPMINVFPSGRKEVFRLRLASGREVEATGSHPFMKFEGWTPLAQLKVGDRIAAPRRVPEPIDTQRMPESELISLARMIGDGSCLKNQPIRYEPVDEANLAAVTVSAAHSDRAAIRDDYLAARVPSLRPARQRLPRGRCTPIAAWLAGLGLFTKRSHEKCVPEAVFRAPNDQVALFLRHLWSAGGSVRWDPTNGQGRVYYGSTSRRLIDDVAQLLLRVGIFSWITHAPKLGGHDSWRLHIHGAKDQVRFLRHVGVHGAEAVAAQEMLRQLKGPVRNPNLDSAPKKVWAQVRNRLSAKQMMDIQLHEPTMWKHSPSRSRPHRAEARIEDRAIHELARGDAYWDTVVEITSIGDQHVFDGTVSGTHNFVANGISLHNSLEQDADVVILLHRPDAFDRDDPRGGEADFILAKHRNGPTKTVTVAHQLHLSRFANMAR
The assay is described as follows: DnaB intein splicing inhibitors, dose response, biochemical, cell-free fluorescence (AID 449749). The format is functional.

Assay [5] deals with T2, Protein RecA (Mycobacterium tuberculosis, UniProt P9WHJ3).
T2 sequence (P9WHJ3 whole entry): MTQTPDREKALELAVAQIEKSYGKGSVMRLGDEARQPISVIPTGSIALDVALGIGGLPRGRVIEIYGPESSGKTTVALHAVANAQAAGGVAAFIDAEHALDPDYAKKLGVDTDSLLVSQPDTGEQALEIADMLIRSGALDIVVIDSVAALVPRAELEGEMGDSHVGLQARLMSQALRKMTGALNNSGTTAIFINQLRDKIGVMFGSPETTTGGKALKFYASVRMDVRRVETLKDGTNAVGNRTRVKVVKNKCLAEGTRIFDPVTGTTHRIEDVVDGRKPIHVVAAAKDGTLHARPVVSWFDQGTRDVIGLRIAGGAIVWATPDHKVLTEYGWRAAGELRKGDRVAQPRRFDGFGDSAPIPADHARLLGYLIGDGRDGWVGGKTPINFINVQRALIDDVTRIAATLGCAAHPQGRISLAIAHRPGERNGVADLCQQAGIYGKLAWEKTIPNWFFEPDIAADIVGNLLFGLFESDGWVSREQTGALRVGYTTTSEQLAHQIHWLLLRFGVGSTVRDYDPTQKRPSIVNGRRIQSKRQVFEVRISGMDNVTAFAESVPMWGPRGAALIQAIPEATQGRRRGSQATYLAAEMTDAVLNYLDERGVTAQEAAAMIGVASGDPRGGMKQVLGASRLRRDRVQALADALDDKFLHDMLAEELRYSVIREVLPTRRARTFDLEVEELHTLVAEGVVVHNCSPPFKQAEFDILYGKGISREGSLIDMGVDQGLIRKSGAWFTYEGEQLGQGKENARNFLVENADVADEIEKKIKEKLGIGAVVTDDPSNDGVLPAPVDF
The assay is described as follows: Fluorescence Cell-Free Homogeneous Dose Retest to Identify Inhibitors of RecA-Intein Splicing Activity. [Related pubchem assays (depositor defined):AID2097, AID2223, AID489010, AID492950]. The format is functional.

Assay [6] addresses Transthyretin (Homo sapiens, UniProt P02766). The assay is described as follows: Luminescence-based cell-based high throughput dose response assay to identify activators of Transthyretin (TTR) transcription. It is filed as functional.
Assay [7] concerns the target T3, Sphingosine 1-phosphate receptor 2 (Homo sapiens, UniProt O95136). The assay is described as follows: Dose Response Cell Based Assay for Antagonists of the S1P2 Receptor. [Related pubchem assays: 856, 736 ]. It is filed as functional.
The target in assay [8] is T3, Sphingosine 1-phosphate receptor 2. The assay is described as follows: Dose Response Cell Based Assay for Agonists of the S1P2 Receptor. [Related pubchem assays: 729, 736, 843 ]. The format is functional.
Assay [9] in a line: IC50 of insulin release inhibition, rat insulinoma INS-1E line, 5 mM glucose, cell-based (AID 1117331). The format is functional.
Assay [10] is described as follows: glucagon-like peptide-1 release potency in STC-1, concentration-response, half-maximal inhibitory concentration in the STC-1 line (AID 1117345). The format is functional, cell-based.
Assay [11] in a line: Potency on glucagon-like peptide 1 release, dose-response in NCI-H716 cell line, half maximal inhibitory concentration (AID 1117344). The format is functional, cell-based.

Activity calls are given as the source filed them. Where only a bound is given, the exact number is not on record here.

T3 sequence (O95136 whole entry): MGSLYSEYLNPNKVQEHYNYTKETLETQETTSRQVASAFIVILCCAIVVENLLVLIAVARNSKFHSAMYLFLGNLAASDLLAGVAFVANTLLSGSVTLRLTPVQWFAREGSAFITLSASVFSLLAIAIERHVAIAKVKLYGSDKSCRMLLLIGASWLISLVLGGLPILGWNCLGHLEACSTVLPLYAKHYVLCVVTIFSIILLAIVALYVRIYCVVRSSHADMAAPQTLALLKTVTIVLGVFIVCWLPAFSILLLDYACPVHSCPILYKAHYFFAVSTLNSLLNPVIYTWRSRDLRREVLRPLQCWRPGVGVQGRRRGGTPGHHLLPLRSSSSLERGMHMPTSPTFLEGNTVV
Chain of Protein Tat (P04608 whole entry): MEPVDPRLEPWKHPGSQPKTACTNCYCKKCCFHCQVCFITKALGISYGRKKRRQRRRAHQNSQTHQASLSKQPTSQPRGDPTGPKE
Chain of E3 ubiquitin-protein ligase Mdm2 (Q00987 whole entry): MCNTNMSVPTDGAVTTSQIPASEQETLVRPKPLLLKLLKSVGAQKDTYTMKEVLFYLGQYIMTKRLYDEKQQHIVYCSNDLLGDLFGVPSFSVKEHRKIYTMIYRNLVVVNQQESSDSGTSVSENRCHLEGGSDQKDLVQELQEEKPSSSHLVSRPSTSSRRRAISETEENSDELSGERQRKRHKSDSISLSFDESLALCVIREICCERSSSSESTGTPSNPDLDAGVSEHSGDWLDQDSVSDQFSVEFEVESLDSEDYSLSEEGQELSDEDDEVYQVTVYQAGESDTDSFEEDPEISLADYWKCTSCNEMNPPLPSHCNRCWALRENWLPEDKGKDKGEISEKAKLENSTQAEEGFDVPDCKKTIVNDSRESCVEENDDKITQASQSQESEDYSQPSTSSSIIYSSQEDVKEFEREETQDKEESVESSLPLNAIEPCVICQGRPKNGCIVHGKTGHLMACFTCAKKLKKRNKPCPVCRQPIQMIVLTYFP

Broadly, the IC50 is the concentration at which inhibition is half-maximal. As for `Cn1c(SCC(=O)c2cc(Cl)c(Cl)s2)nnc1-c1ccco1`, the concentration for half-maximal inhibition (IC50) in assay [1] was > 50 µM (active).
Broadly, the EC50 is the concentration giving half of the maximal effect. For `COc1ccc2[nH]c(C(=O)O)c(CCNC(C)=O)c2c1`, the EC50 in [2] is 0.39 µM (not active).
The term AC50 denotes the concentration at which the activity in the assay is half-maximal. As to `O=C(CCl)c1cc2c3c(c1)CC(=O)N3CCC2`, the IC50 in [3] is 40.6 µM (active). Also, the AC50 in [4] is 35.9 µM (active). Also, the EC50 is 11.7 µM (active) in [5] and > 167 µM (inactive) in assay [6].
With `O=C(O)c1sc2cc(C(F)(F)F)cnc2c1-c1ccco1`, the half-maximal inhibitory concentration (IC50) in [7] is on record as > 30 µM (not active).
With `CS(=O)(=O)NCc1nnc(SCC(=O)NC2CCCCC2)n1-c1ccc(F)cc1`, the EC50 in [8] is recorded as > 50 µM (not active).
Take `COC(=O)C(Cl)C(=O)OC`: the IC50 in [9] is > 33.3 µM (inactive); in assay [10], 8.37 µM (inactive); in assay [11] it was > 40 µM (inactive).
The like results for `Cc1ccc(O)cc1` [p-CRESOL] were, in that order, > 33.3 µM (inactive), > 40 µM (inactive) and > 40 µM (inactive).
